This is an account of results in patent US20240247015A1, “PHOSPHORUS DERIVATIVES AS NOVEL SOS1 INHIBITORS” (BAYER AKTIENGESELLSCHAFT, priority 2021, published 2024).

SMILES strings stand for the structures. pIC50: −log10 of the molar value.

The target of this assay is interaction of human SOS1 (SOS1) with human K-RasG12C (Homo sapiens (Human), UniProt Q07889). As to the kind of experiment: Biochemical assay: hK-RasG12C interaction assay with hSOS1 (HTRF). It is filed as binding. The settings on record: GST-hK-RasG12C with His-hSOS1, 60 min incubation at 20° C., mean, read-out: K-RasG12C - SOS interaction assay IC50 (mean). How it is done: Biochemical Assay: hK-RasG12C Interaction Assay with hSOS1 This assay quantifies the equilibrium interaction of human SOS1 (SOS1) with human K-Ras^G12^C (K-RasG12C). Detection of the interaction is achieved by measuring homogenous time-resolved fluorescence resonance energy transfer (HTRF) from antiGST-Europium (FRET donor) bound to GST-K-RasG12C to anti-6His-XL665 bound to His-tagged hSOS1 (FRET-acceptor). The assay buffer containes 5 mM HEPES pH 7.4 (Applichem), 150 mM NaCl (Sigma), […] (Promega), 1 mM DTT (Thermofisher), 0.05% BSA Fraction V, pH 7.0, (ICN Biomedicals), 0.0025% (v/v) Igepal (Sigma) and 100 mM KF (FLUKA). The expression and purification of N-terminally GST-tagged human K-RasG12C (termed GST-hK-RasG12C) and N-terminally His-tagged human SOS1 (termed His10-hSOS1) is described in WO 2019/201848, page 220 line 12-34 and page 222, line 13-25 (expression) and page 222, line 26 to page 223, line 17 (purification). Concentrations of protein batches used are optimized to be within the linear range of the HTRF signal. A Ras working solution is prepared in assay buffer containing typically 10 nM GST-hK-RasG12C and 2 nM antiGST-Eu(K) (Cisbio, France). A SOS1 working solution is prepared in assay buffer containing typically 20 nM His-hSOS1 and 10 nM anti-6His-XL665 (Cisbio, France). An inhibitor control solution is prepared in assay buffer containing nM anti-6His-XL665 without SOS1. Fifty nl of a 100-fold concentrated solution of the test compound in DMSO are transferred into a black microtiter test plate (384 or 1536, Greiner Bio-One, Germany). For this, either a Hummingbird liquid handler (Digilab, MA, USA) or an Echo acoustic system (Labcyte, CA, USA) is used. All steps of the assay are performed at 20° C. A volume of 2.5 μl of the Ras working solution is added to all wells of the test plate using a Multidrop dispenser (Thermo Labsystems). After 2 min preincubation, 2.5 μl of the SOS1 working solution are added to all wells except for those wells at the side of the test plate that are subsequently filled with 2.5 μl of the inhibitor control solution. After 60 min incubation the fluorescence is measured with a Pherastar (BMG, Germany) using the HTRF module (excitation 337 nm, emission 1: 620 nm, emission 2: 665 nm). The ratiometric data (emission 2 divided by emission 1) are normalized using the controls (DMSO=0% inhibition, inhibition control wells with inhibitor control solution=100% inhibition). Compounds are tested in duplicates at up to 11 concentrations (for 20 μM, 5,7 μM, 1,6 μM, 0.47 μM, 0.13 μM, 38 nM, 11 nM, 3.1 nM, 0.89 nM, 0.25 nM and 0.073 nM). IC50 values are calculated by 4-Parameter fitting using a commercial software package (Genedata Screener, Switzerland).
Sequence of interaction of human SOS1 (SOS1) with human K-RasG12C (Q07889 564-1049 limits assumed): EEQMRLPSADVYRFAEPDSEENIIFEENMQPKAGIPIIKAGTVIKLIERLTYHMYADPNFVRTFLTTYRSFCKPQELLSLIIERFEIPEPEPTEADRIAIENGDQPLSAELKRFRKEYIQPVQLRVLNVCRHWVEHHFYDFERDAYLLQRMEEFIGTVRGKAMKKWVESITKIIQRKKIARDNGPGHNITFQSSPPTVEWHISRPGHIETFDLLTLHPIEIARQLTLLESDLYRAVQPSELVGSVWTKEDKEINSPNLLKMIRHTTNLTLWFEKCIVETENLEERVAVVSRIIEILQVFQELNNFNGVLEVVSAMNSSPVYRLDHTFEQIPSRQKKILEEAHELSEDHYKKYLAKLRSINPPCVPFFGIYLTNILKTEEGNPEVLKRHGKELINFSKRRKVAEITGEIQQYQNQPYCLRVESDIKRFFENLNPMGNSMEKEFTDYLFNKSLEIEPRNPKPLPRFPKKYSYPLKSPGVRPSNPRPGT
For orientation: In TR-FRET formats the signal depends on donor and acceptor labels being close together.
For orientation: pIC50 means −log10 of the IC50, conventionally taken in molar units. For the compound `Cc1nc(N[C@H](C)c2cccc(C(F)(F)F)c2C)c2cc(P3(=O)CCN(C(=O)OC(C)(C)C)CC3)nc(C)c2n1` [Example 91, tert-butyl 4-[2,8-dimethyl-4-({(1R)-1-[2-methyl-3-(trifluoromethyl)phenyl]ethyl}amino)pyrido[3,4-d]pyrimidin-6-yl]-4-oxo-1,4lambda^5-azaphosphinane-1-carboxylate], the pIC50 is 6.54.
Take `CCP(C)(=O)c1cc2c(N[C@H](C)c3cccc(C(F)(F)C(C)O)c3F)nc(C)nc2cn1` (single isomer, unassigned) [Example 73, (2R*)-1-{3-[(1R)-1-{{6-[ethyl(methyl)phosphoryl]-2-methylpyrido[3,4-d]pyrimidin-4-yl}amino)ethyl]-2-fluorophenyl}-1,1-difluoropropan-2-ol]: the pIC50 was 7.95.
With `Cc1nc(N[C@H](C)c2cccc(C(F)F)c2F)c2cc(P3(=O)CCN(C(=O)C(F)F)CC3)ncc2n1` [Example 206], the pIC50 was 8.42.
Take `COCC(=O)N1CCP(=O)(c2cc3c(N[C@H](C)c4cccc(C(F)(F)F)c4C)nc(C)nc3cn2)CC1` [Example 177, 1-(methoxyacetyl)-4-[2-methyl-4-({(1R)-1-[2-methyl-3-(trifluoromethyl)phenyl]ethyl}amino)pyrido[3,4-d]pyrimidin-6-yl]-1,4lambda^5-azaphosphinan-4-one]: the pIC50 was 8.30.
For the compound `Cc1nc(N[C@H](C)c2cccc(C(F)F)c2F)c2cc(P(C)(C)=O)ncc2n1` [Example 2, N-{(1R)-1-[3-(difluoromethyl)-2-fluorophenyl]ethyl}-6-(dimethylphosphoryl)-2-methylpyrido[3,4-d]pyrimidin-4-amine], the pIC50 was 7.29.
Take `Cc1nc(N[C@H](C)c2cccc(C(F)(F)F)c2C)c2cc(P3(=O)CCN(C(=O)c4cnn(C)c4)CC3)ncc2n1` [Example 175, 4-[2-methyl-4-{{(1R)-1-[2-methyl-3-(trifluoromethyl)phenyl]ethyl}amino)pyrido[3,4-d]pyrimidin-6-yl]-1-(1-methyl-1H-pyrazole-4-carbonyl)-1,4lambda^5-azaphosphinan-4-one]: the pIC50 is 8.04.
As to `Cc1nc(N[C@H](C)c2cccc(C(F)F)c2F)c2cc(P3(=O)CCCC3)c(C)nc2n1` [Example 126, 1-[4-{{(1R)-1-[3-(difluoromethyl)-2-fluorophenyl]ethyl}amino)-2,7-dimethylpyrido[2,3-d]pyrimidin-6-yl]-1lambda^5-phospholan-1-one], the pIC50 was 8.03.
Regarding `Cc1nc(N[C@H](C)c2cccc(C(F)F)c2F)c2cc(P3(=O)CCN(C)CC3)ncc2n1` [Example 52, 4-[4-({(1R)-1-[3-(difluoromethyl)-2-fluorophenyl]ethyl}amino)-2-methylpyrido[3,4-d]pyrimidin-6-yl]-1-methyl-1,4lambda^5-azaphosphinan-4-one], the pIC50 was 7.45.
With `CCC(O)C(F)(F)c1cccc([C@@H](C)Nc2nc(C)nc3cnc(P(C)(C)=O)cc23)c1F` (single isomer, unassigned) [Example 65, (2R*)-1-{3-[(1R)-1-{[6-(dimethylphosphoryl)-2-methylpyrido[3,4-d]pyrimidin-4-yl]amino}ethyl]-2-fluorophenyl}-1,1-difluorobutan-2-ol] the figure was 7.98; with `Cc1nc(N[C@H](C)c2cccc(C(F)(F)C(C)O)c2F)c2cc(P3(=O)CCCC3)ncc2n1` (single isomer, unassigned) [Example 111, 1-(4-{[(1R)-1-{3-[(2R*)-1,1-difluoro-2-hydroxypropyl]-2-fluorophenyl}ethyl]amino}-2-methylpyrido[3,4-d]pyrimidin-6-yl)-1lambda^5-phospholan-1-one], 7.67; with `CCP(C)(=O)c1cc2c(N[C@H](C)c3cccc(C(F)(F)C(C)O)c3F)nc(C)nc2cn1` (single isomer, unassigned) [Example 76, (2R*)-1-{3-[(1R)-1-({6-[ethyl(methyl)phosphoryl]-2-methylpyrido[3,4-d]pyrimidin-4-yl}amino)ethyl]-2-fluorophenyl}-1,1-difluoropropan-2-ol], 7.67.
As to `CC(=O)N(C)CC(F)(F)c1cccc([C@@H](C)Nc2nc(C)nc3cnc(P4(=O)CCN(C(=O)C5CC5)CC4)cc23)c1F` [Example 182, N-(2-{3-[(1R)-1-({6-[1-(cyclopropanecarbonyl)-4-oxo-1,4lambda^5-azaphosphinan-4-yl]-2-methylpyrido[3,4-d]pyrimidin-4-yl}amino)ethyl]-2-fluorophenyl}-2,2-difluoroethyl)-N-methylacetamide], the pIC50 was 8.40.
For `Cc1nc(N[C@H](C)c2cccc(C(F)(F)CO)c2F)c2cc(P(C)(C)=O)ncc2n1` [Example 62, 2-{3-[(1R)-1-{[6-(dimethylphosphoryl)-2-methylpyrido[3,4-d]pyrimidin-4-yl]amino}ethyl]-2-fluorophenyl}-2,2-difluoroethan-1-ol], the pIC50 was 7.87.
With `CCP(C)(=O)c1cc2c(N[C@H](C)c3cccc(C(F)(F)CO)c3F)nc(C)nc2cn1` (single isomer, unassigned) [Example 131] the figure was 7.94; with `CC(=O)N1CCP(=O)(c2cc3c(N[C@H](C)c4cccc(C(F)(F)F)c4C)nc(C)nc3c(C3CC3)n2)CC1` [Example 35, 1-acetyl-4-[8-cyclopropyl-2-methyl-4-({(1R)-1-[2-methyl-3-(trifluoromethyl)phenyl]ethyl}amino)pyrido[3,4-d]pyrimidin-6-yl]-1,4lambda^5-azaphosphinan-4-one], 7.67; with `Cc1nc(N[C@H](C)c2cccc(C(F)(F)C(C)O)c2F)c2cc(P(C)(=O)C(C)C)ncc2n1` (single isomer, unassigned) [Example 83, (2R*)-1,1-difluoro-1-{2-fluoro-3-[(1R)-1-({2-methyl-6-[methyl(propan-2-yl)phosphoryl]pyrido[3,4-d]pyrimidin-4-yl}amino)ethyl]phenyl}propan-2-ol], 7.51.
The result for `CCP(C)(=O)c1cc2c(N[C@H](C)c3cccc(C(F)(F)C(C)(C)O)c3F)nc(C)nc2cn1` (single isomer, unassigned) [Example 69] reads 7.71.
As to `CO[C@H](C)C(=O)N1CCP(=O)(c2cc3c(N[C@H](C)c4cccc(C(F)F)c4F)nc(C)nc3cn2)CC1` [Example 155, 4-[4-{{(1R)-1-[3-(difluoromethyl)-2-fluorophenyl]ethyl}amino)-2-methylpyrido[3,4-d]pyrimidin-6-yl]-1-[(2R)-2-methoxypropanoyl]-1,4lambda^5-azaphosphinan-4-one], the pIC50 is 7.95.
The result for `CC(=O)N1CCP(=O)(c2cc3c(N[C@H](C)c4cccc(C(F)(F)F)c4C)nc(C)nc3c(C(F)F)n2)CC1` [Example 36, 1-acetyl-4-[8-(difluoromethyl)-2-methyl-4-({(1R)-1-[2-methyl-3-(trifluoromethyl)phenyl]ethyl}amino)pyrido[3,4-d]pyrimidin-6-yl]-1,4lambda^5-azaphosphinan-4-one] reads 7.78; that for `CCP(=O)(CC)c1cc2c(N[C@H](C)c3cccc(C(F)(F)C(C)O)c3F)nc(C)nc2cn1` (stereo in doubt) [Example 90, (2R*)-1-{3-[(1R)-1-{[6-(diethylphosphoryl)-2-methylpyrido[3,4-d]pyrimidin-4-yl]amino}ethyl]-2-fluorophenyl}-1,1-difluoropropan-2-ol], 7.58; that for `CC(=O)N1CCP(=O)(c2cc3c(N[C@H](C)c4cccc(C(F)(F)F)c4C)nc(Cl)nc3cn2)CC1` [Example 196], 8.62.
`Cc1nc(N[C@H](C)c2cccc(C(F)(F)F)c2C)c2cc(P(C)(C)=O)cnc2n1` [Example 13, 6-(dimethylphosphoryl)-2-methyl-N-{(1R)-1-[2-methyl-3-(trifluoromethyl)phenyl]ethyl}pyrido[2,3-d]pyrimidin-4-amine]: the pIC50 is 7.79.
